From publication PMC12116762, “Topobexin targets the Topoisomerase II ATPase domain for beta isoform-selective inhibition and anthracycline cardioprotection” (Nature Communications, 2025)

Assays:
recombinant human TOP2A = target: T1, recombinant human TOP2A (Homo sapiens, UniProt P11388); test: In vitro ATPase activity of TOP2A (coupled assay); type: biochemical; settings: n=3
T1 construct: Using recombinant full-length human TOP2A and TOP2B enzymes; YFP (N, cleaved yes); made in house; host or cells: HEK293F
Method: (§1) Topoisomerase proteins were diluted to 500 nM in storage buffer containing 20 mM HEPES pH 7.5, 500 mM NaCl, 0.5 mM TCEP, 25% glycerol, and 0.2 mg/mL BSA prior to use. A coupled assay was used to measure TOP2-catalyzed ATP hydrolysis in vitro[37] in Costar 96-well plates (Corning Incorporated). […] Reaction plates were pre-warmed to 30 °C for 5 min and ATP was added last to initiate the reaction. The reaction plate was placed in a CLARIOstarPlus plate reader (BMG Labtech) to measure NADH fluorescence at 30 °C every 30 s over 120 cycles using a 340-60 excitation filter and a 480-100 emission filter. Background fluorescence signals calculated from wells containing no ATP were subtracted from each measurement. The slope of NADH fluorescence decay in each well was calculated using the MARS software (BMG Labtech) and reaction wells that lacked topoisomerase inhibitor to account for photobleaching of NADH fluorescence served as background subtraction. Each presented data point was obtained from distinct sample. Values were normalized to untreated controls and plotted as a function of inhibitor concentration to determine IC50 values using Prism 9 (GraphPad).

recombinant human TOP2B = target: T2, recombinant human TOP2B (Homo sapiens, UniProt Q02880); test: In vitro ATPase activity of TOP2B (coupled assay); type: biochemical; settings: for SRbeta (SRTOP2B), TOP2 ATPase activity: TOP2A IC50 divided by TOP2B IC50; for IC50: n=3
T2 construct: Using recombinant full-length human TOP2A and TOP2B enzymes; YFP (N, cleaved yes); made in house; host or cells: HEK293F
Method: as §1

[1] = system: neonatal rat ventricular cardiomyocytes (NVCM); test: Protection against DAU-induced cytotoxicity (LDH release) in NVCM; type: cell-based; set-up: key to Suppl.Fig.3 DAU-induced cytotoxicity (LDH release) in NVCM, mean of independent replicates / LDH release (DAU-induced cytotoxicity), mean of independent replicates: % of total LDH activity; settings: for minimal effective concentration: Rattus norvegicus, Cardiomyocyte, protection against DAU 1.2 µM, n=4, read-out: LEC = lowest effective concentration; for minimal effective concentration / LDH release (protection against DAU), mean of independent replicates: NVCM; for LDH release (protection against DAU), mean of independent replicates: Suppl.Fig.6b
Method: (§2) The protective effects of the BNS-22 and newly prepared compounds were evaluated using primary cultures of neonatal rat cardiomyocytes isolated in house as previously described. Hearts isolated from 1- to 3-day-old Wistar rats were minced in buffer (1.2 mM MgSO4 · 7H2O, 116 mM NaCl, 5.3 mM KCl, 1.13 mM NaH2PO4 · H2O, 20 mM 4-(2-hydroxyethyl)-1-piperazine ethanesulfonic acid (HEPES), glucose 1 mg/mL) on ice, then serially digested (20 min, six repetitions) at 37 °C with collagenase type II (60 U/mL, Gibco). After 2 h pre-plating in a 150 mm Petri dish per approximately 20 hearts to minimize non-myocyte contamination, cells were plated in 24-well gelatin-coated plates at a density of 400,000 cells per well. Cells were cultured at 37 °C and 5% CO2 in Dulbecco’s modified Eagle medium (DMEM)/ F12 culture medium supplemented with 10% horse serum, 5% fetal bovine serum (FBS), 20 mM sodium pyruvate, 50 U/mL penicillin, and 50 μg/mL streptomycin. Freshly isolated cells were left for 40 h to attach and form a culture of spontaneously beating cardiomyocytes, then the medium was changed to DMEM/F12 medium supplemented with 5% fetal bovine serum, 20 mM sodium pyruvate, 50 U/mL penicillin, and 50 μg/mL streptomycin. For the experiments, the medium was changed to serum- and pyruvate-free DMEM/F12 with 50 U/mL penicillin and 50 μg/mL streptomycin. Cardiomyocytes were pretreated with BNS-22 or new compounds for 3 h and then coincubated with DAU (1.2 µM) for another 3 h. After the DAU treatment period, the culture medium was exchanged for the drug-free DMEM/F12 with 50 U/mL penicillin and 50 μg/mL streptomycin for the 48 h follow-up. Experiments to determine the inherent toxicity of each compound studied follow the same schedule, only no DAU was added. Subsequently, the culture medium sample was taken from each well for evaluation of lactate dehydrogenase (LDH) activity. The total LDH activity of each sample for normalization was measured after 1 h of incubation at 37 °C in lysis buffer (0.1 M potassium phosphate, 1% Triton X-100, 1 mM dithiothreitol (DTT), 2 mM EDTA, pH 7.8, 15 min in RT). All samples were immediately analyzed in Tris HCl buffer (pH 8.9) containing 35 mM lactic acid and 5 mM NAD^+. The rate of NAD^+ reduction was monitored spectrophotometrically at 340 nm for 2 min. The slope of the linear region was calculated, and the results were expressed as a percentage of the total LDH. Each presented data point was obtained from distinct sample.

[2] = system: neonatal rat ventricular cardiomyocytes (NVCM); test: Inherent toxicity (LDH release) in NVCM; type: cell-based; set-up: key to LDH release (inherent toxicity), mean of independent replicates: % of total LDH activity; settings: NVCM; for LTC = lowest toxic concentration: compound alone, n=4
Method: as §2

[3] = compound alone 0.1 µM, Suppl.Fig.4
[4] = compound alone 1 µM, Suppl.Fig.4
[5] = compound alone 10 µM, Suppl.Fig.4
[6] = compound alone 30 µM, Suppl.Fig.4
[7] = compound alone 0.01 µM, Suppl.Fig.6c
[8] = compound alone 0.1 µM, Suppl.Fig.6c
[9] = compound alone 1 µM, Suppl.Fig.6c
[10] = compound alone 10 µM, Suppl.Fig.6c
[11] = compound alone 30 µM, Suppl.Fig.6c
[12] = compound alone 100 µM, Suppl.Fig.6c

T1 sequence (P11388 whole entry): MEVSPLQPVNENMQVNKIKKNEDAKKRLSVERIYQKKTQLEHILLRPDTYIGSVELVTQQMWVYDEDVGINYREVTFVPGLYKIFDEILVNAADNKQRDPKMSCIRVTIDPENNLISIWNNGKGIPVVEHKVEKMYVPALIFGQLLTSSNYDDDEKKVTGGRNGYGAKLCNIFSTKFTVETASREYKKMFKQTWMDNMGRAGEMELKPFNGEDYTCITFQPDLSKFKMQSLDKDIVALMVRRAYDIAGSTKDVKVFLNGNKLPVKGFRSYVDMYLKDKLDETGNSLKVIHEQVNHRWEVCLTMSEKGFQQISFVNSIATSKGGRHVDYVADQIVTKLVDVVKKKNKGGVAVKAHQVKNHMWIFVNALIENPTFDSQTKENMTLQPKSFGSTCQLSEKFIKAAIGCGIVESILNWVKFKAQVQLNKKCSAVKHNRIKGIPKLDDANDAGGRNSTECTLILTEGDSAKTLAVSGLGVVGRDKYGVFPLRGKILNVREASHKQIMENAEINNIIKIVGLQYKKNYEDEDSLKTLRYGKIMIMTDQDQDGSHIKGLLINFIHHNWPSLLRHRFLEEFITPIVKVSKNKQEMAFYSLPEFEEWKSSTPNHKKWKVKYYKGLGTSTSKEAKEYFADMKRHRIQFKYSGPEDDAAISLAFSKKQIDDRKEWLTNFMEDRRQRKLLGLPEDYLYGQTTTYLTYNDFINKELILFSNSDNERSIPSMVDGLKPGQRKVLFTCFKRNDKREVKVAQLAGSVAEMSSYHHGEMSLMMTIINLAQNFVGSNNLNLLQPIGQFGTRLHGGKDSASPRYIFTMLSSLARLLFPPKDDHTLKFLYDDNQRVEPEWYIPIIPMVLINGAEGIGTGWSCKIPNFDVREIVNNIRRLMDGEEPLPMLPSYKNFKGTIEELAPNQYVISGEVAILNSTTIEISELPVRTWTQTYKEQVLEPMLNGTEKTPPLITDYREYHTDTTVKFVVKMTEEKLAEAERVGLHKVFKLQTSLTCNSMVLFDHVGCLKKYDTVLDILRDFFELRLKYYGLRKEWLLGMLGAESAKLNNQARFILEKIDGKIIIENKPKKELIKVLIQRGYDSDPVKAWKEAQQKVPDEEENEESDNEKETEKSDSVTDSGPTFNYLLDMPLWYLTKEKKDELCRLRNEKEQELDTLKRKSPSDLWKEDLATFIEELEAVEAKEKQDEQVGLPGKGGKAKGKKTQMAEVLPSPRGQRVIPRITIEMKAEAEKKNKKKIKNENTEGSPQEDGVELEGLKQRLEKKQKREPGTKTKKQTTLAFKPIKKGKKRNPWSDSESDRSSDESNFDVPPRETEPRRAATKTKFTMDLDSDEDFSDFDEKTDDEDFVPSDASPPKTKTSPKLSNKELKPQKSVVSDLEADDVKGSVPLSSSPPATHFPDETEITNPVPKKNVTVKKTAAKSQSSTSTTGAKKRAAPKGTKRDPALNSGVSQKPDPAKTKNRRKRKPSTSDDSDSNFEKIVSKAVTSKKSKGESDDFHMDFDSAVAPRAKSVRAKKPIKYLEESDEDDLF
T2 sequence (Q02880 1-1621 isoform Q02880-2): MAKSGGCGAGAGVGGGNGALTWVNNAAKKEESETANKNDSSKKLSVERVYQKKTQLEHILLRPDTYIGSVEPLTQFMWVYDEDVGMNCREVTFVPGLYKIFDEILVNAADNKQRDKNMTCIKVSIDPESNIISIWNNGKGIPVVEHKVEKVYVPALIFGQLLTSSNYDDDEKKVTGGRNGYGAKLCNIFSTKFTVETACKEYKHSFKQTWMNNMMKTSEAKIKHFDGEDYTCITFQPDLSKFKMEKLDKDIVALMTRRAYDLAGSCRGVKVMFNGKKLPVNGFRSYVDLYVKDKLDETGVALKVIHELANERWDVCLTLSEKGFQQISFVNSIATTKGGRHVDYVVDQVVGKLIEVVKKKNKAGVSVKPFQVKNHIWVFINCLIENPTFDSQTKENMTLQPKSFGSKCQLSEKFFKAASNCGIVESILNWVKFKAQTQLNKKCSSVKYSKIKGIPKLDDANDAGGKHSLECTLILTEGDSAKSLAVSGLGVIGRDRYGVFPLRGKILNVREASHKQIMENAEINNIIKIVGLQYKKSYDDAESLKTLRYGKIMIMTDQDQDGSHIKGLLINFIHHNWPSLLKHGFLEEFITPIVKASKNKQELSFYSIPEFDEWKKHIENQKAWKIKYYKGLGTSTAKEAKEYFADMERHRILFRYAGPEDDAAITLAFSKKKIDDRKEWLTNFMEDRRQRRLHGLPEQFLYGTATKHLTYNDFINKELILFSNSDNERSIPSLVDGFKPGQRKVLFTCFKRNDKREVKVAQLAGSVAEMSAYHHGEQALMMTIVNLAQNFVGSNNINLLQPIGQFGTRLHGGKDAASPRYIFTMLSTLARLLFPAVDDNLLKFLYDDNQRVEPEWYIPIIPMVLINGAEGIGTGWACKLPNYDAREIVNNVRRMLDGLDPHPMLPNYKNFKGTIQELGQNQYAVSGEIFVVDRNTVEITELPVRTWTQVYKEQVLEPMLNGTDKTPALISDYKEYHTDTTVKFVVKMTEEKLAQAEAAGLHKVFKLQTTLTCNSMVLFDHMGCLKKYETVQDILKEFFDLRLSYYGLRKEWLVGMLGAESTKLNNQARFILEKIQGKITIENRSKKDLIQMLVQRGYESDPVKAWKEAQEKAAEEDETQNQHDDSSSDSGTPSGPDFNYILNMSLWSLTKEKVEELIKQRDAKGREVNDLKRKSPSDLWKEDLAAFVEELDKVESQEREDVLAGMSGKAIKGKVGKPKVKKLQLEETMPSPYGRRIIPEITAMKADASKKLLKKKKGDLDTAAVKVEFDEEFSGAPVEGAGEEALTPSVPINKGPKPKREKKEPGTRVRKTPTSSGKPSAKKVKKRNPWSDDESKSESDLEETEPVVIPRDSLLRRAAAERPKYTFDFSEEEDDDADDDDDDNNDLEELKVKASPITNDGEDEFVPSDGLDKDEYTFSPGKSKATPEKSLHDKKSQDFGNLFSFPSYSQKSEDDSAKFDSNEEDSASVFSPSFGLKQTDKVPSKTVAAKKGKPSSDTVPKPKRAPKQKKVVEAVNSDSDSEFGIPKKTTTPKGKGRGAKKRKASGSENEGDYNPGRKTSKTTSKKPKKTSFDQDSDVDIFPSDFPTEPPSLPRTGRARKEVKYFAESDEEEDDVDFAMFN

SMILES | IC50 (recombinant human TOP2A) [nM] | SRbeta (SRTOP2B), TOP2 ATPase activity (recombinant human TOP2B) | IC50 (recombinant human TOP2B) [nM] | minimal effective concentration [1] [µM] | Suppl.Fig.3 DAU-induced cytotoxicity (LDH release) in NVCM, mean of independent replicates ([1]; compound 0.1 µM + DAU 1.2 µM) | Suppl.Fig.3 DAU-induced cytotoxicity (LDH release) in NVCM, mean of independent replicates ([1]; compound 1 µM + DAU 1.2 µM) | Suppl.Fig.3 DAU-induced cytotoxicity (LDH release) in NVCM, mean of independent replicates ([1]; compound 10 µM + DAU 1.2 µM) | LTC = lowest toxic concentration [2] [µM] | LDH release (inherent toxicity), mean of independent replicates [2, 3] | LDH release (inherent toxicity), mean of independent replicates [2, 4] | LDH release (inherent toxicity), mean of independent replicates [2, 5] | Suppl.Fig.3 DAU-induced cytotoxicity (LDH release) in NVCM, mean of independent replicates ([1]; compound 30 µM + DAU 1.2 µM) | LDH release (inherent toxicity), mean of independent replicates [2, 6] | LDH release (protection against DAU), mean of independent replicates ([1]; compound 0.01 µM + DAU 1.2 µM) | LDH release (protection against DAU), mean of independent replicates ([1]; compound 0.1 µM + DAU 1.2 µM) | LDH release (protection against DAU), mean of independent replicates ([1]; compound 1 µM + DAU 1.2 µM) | LDH release (protection against DAU), mean of independent replicates ([1]; compound 10 µM + DAU 1.2 µM) | LDH release (protection against DAU), mean of independent replicates ([1]; compound 30 µM + DAU 1.2 µM) | LDH release (protection against DAU), mean of independent replicates ([1]; compound 100 µM + DAU 1.2 µM) | LDH release (inherent toxicity), mean of independent replicates [2, 7] | also measured
CCCc1cc(=O)oc2c(C(=O)N3CCCc4ccccc43)c(OC)ccc12 [3c] | 1270 | 1.6 | 780 | 1 | 33.8238 | 29.3632 | 23.4291 | > 10 | 16.0204 | 16.3627 | 16.4282 | – | – | – | – | – | – | – | – | – | Suppl.Fig.3 DAU-induced cytotoxicity (LDH release) in NVCM, mean of independent replicates ([1]; compound 3 µM + DAU 1.2 µM): 26.6827; LDH release (inherent toxicity), mean of independent replicates ([2]; compound alone 3 µM, Suppl.Fig.4): 15.3033
CCCc1cc(=O)oc2c(C(=O)N3CCCc4ccccc43)c(OCCN(C)C)ccc12 [compound 7] | – | – | – | 10 | – | – | – | – | – | – | – | – | – | 44.2016 | 45.7696 | 39.8955 | 31.2866 | 33.8072 | 37.6314 | 12.5189 | LDH release (inherent toxicity), mean of independent replicates [2, 8]: 12.4578; LDH release (inherent toxicity), mean of independent replicates [2, 9]: 12.8607; LDH release (inherent toxicity), mean of independent replicates [2, 10]: 14.2154; LDH release (inherent toxicity), mean of independent replicates [2, 11]: 18.2491; LDH release (inherent toxicity), mean of independent replicates [2, 12]: 27.6932
CCCc1cc(=O)oc2c(C(=O)N3CCCc4ccccc43)c(OCCCN3CCCCC3)ccc12 [compound 8] | – | – | – | 1 | – | – | – | 30 | – | – | – | – | – | 40.886 | 39.8568 | 34.126 | 30.5731 | 32.7612 | 39.9555 | 14.7015 | LDH release (inherent toxicity), mean of independent replicates [2, 8]: 13.9677; LDH release (inherent toxicity), mean of independent replicates [2, 9]: 14.1413; LDH release (inherent toxicity), mean of independent replicates [2, 10]: 16.8035; LDH release (inherent toxicity), mean of independent replicates [2, 11]: 21.145; LDH release (inherent toxicity), mean of independent replicates [2, 12]: 29.4802

More lines, main results first:

IC50 (recombinant human TOP2A) [nM] | SRbeta (SRTOP2B), TOP2 ATPase activity (recombinant human TOP2B) | IC50 (recombinant human TOP2B) [nM] | SMILES | minimal effective concentration [1] [µM] | Suppl.Fig.3 DAU-induced cytotoxicity (LDH release) in NVCM, mean of independent replicates ([1]; compound 0.1 µM + DAU 1.2 µM) | Suppl.Fig.3 DAU-induced cytotoxicity (LDH release) in NVCM, mean of independent replicates ([1]; compound 1 µM + DAU 1.2 µM) | Suppl.Fig.3 DAU-induced cytotoxicity (LDH release) in NVCM, mean of independent replicates ([1]; compound 10 µM + DAU 1.2 µM) | LTC = lowest toxic concentration [2] [µM] | LDH release (inherent toxicity), mean of independent replicates [2, 3] | LDH release (inherent toxicity), mean of independent replicates [2, 4] | LDH release (inherent toxicity), mean of independent replicates [2, 5] | Suppl.Fig.3 DAU-induced cytotoxicity (LDH release) in NVCM, mean of independent replicates ([1]; compound 30 µM + DAU 1.2 µM) | LDH release (inherent toxicity), mean of independent replicates [2, 6] | LDH release (protection against DAU), mean of independent replicates ([1]; compound 0.01 µM + DAU 1.2 µM) | LDH release (protection against DAU), mean of independent replicates ([1]; compound 0.1 µM + DAU 1.2 µM) | LDH release (protection against DAU), mean of independent replicates ([1]; compound 1 µM + DAU 1.2 µM) | LDH release (protection against DAU), mean of independent replicates ([1]; compound 10 µM + DAU 1.2 µM) | LDH release (protection against DAU), mean of independent replicates ([1]; compound 30 µM + DAU 1.2 µM) | LDH release (protection against DAU), mean of independent replicates ([1]; compound 100 µM + DAU 1.2 µM) | LDH release (inherent toxicity), mean of independent replicates [2, 7] | also measured
1870 | 2.2 | 850 | CCCOc1ccc2c(CCC)cc(=O)oc2c1C(=O)N1CCCc2ccccc21 [4c] | 0.1 | 37.3488 | 27.8991 | 34.5307 | – | 16.7326 | 16.4897 | 23.8379 | 56.7644 | 34.5318 | – | – | – | – | – | – | – | Suppl.Fig.3 DAU-induced cytotoxicity (LDH release) in NVCM, mean of independent replicates ([1]; compound 0.01 µM + DAU 1.2 µM): 45.7304; Suppl.Fig.3 DAU-induced cytotoxicity (LDH release) in NVCM, mean of independent replicates ([1]; compound 100 µM + DAU 1.2 µM): 78.8192; LDH release (inherent toxicity), mean of independent replicates ([2]; compound alone 0.01 µM, Suppl.Fig.4): 13.5244; LDH release (inherent toxicity), mean of independent replicates ([2]; compound alone 100 µM, Suppl.Fig.4): 48.1102
1420 | 1.0 | 1460 | CCc1cc(=O)oc2c(C(=O)N3CCCc4ccccc43)c(OCCO)ccc12 [5b] | 10 | 53.5677 | 49.2444 | 40.137 | > 30 | 13.7703 | 14.0098 | 14.5134 | 35.8495 | 14.3714 | – | – | – | – | – | – | – | –
